Assay results reported in patent publication US20260306525A1, “COMBINATION THERAPY GLUCOCORTICOIDS AND GINSENOSIDE” (FYTAGORAS B.V., priority 2023, published 2026).

What was measured:
[1] = tested on: FKBP5; test: qPCR FKBP5 expression in HeLa cells (GR transactivation); assay type: cell-based, human; settings: beclomethasone 1 μM, Rg1 50 μM or combination
Method: (§1) HeLa (human cervical cancer) cells were cultured in Dulbecco's Modified Eagle's (DMEM) High Glucose (HG) medium without phenol red supplemented with 10% Fetal Calf Serum (FCS) and 10% Glutamax (Sigma-Aldrich). The cells were maintained at 37° C. and 5% CO2. At 24 h before adding the treatment, the medium was replaced by DMEM HG with 10% charcoal-inactivated serum and 10% Glutamax (Sigma-Aldrich). The cells were exposed to short- and long-term compound treatments. […] Subsequently, TNF-α (10 ng/ml) was added along with the compound treatments for 6 h (this last step was not added in the actinomycin-D and cycloheximide experiments).
To determine levels of gene expression in zebrafish larvae, 3 dpf larvae were used in both wounded and non-wounded conditions, and after short- and long-term treatments. Groups of 15 larvae were collected in TRIzol reagent (ThermoFisher) and total RNA was isolated using miRNeasy mini kit (Qiagen, Hilden, Germany). For experiments in HeLa cells, cells were seeded in 6 well plates and after treatment, the cells were removed from the wells using TRIzol reagent and mRNA was isolated using miRNeasy mini kit (Qiagen) according to the manufacturer's instructions. The RNA samples were DNAse-treated utilizing the DNA-free™ DNA Removal Kit (ThermoFisher Scientific). The cDNA synthesis was performed using the iScript cDNA synthesis kit (Bio-Rad Laboratories, Hercules, CA, USA) using 1 μg of RNA per sample. For qPCR, 10 μM of forward primer and 10 μM of reverse primer, 12.5 μl of IQ SYBR Green Supermix (Bio-Rad Laboratories), and 2 μl of cDNA were added to the qPCR reaction mixture. […] The qPCR reactions were performed on a MyiQ-single-color real-time PCR detection system (Bio-Rad Laboratories), with initial denaturation for 3 min, 95° C., and 40 cycles of 15 s at 95.5° C., 15 s at 60° C., and 30 s at 72° C. Cycle threshold values (Ct values, i.e. the cycle numbers at which a threshold value of the fluorescence intensity was reached) were determined for each sample. The gene expression level for each sample was normalized using the expression of ppial (peptidylprolyl isomerase Ab (cyclophilin A)) for zebrafish samples, and 18S rRNA for human cells. The fold change per sample (compared to the respective control group) was calculated using the […]Ct method.

[2] = target: T1, GR (Homo sapiens, UniProt P04150); test: nuclear translocation of GR in HeLa cells (immunocytochemistry); assay type: cell-based; set-up: nuclear translocation by immunocytochemistry (detected with anti-GR antibody D6H2L); settings: 6 h
T1 sequence (P04150 1-777): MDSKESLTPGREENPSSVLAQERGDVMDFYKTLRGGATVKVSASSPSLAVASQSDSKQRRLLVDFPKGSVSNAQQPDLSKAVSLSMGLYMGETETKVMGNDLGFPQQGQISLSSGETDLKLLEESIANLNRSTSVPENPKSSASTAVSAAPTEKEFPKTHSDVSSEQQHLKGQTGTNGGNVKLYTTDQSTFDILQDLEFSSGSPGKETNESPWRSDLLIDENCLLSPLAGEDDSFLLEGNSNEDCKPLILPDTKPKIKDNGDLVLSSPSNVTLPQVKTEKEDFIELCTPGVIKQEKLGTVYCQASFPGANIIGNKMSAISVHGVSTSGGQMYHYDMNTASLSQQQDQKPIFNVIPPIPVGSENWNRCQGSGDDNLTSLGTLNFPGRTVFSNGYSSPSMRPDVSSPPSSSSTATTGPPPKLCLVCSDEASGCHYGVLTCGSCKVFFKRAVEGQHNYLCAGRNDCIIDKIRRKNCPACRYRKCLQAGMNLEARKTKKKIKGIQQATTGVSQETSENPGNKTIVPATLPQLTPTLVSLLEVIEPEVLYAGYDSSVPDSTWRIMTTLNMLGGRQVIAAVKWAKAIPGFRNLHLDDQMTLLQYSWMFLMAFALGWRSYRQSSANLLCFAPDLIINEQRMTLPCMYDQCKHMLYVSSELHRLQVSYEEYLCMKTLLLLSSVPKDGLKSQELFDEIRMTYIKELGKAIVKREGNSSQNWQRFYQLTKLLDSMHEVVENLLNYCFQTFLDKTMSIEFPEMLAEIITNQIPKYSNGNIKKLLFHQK
Method: as §1
To determine the nuclear translocation of GR, immunocytochemistry on GR in Hela cells was performed. The cells were seeded in Nunc™ Lab-Tek™ II Chamber Slide™ System (ThermoFisher Scientific), and cultured in DMEM HG (without phenol red) supplemented with 10% charcoal inactivated serum and […] Glutamax (Sigma-Aldrich) for 48 h. […] In each experiment, 40 randomly selected cells from each treatment group were analyzed. The relative nuclear translocation of the GR was quantified by determining the integrated fluorescence intensity in the nucleus and the whole cell using Fiji ImageJ v1.53c, and these values were corrected for the mean background fluorescence. The percentage of nuclear translocation was assessed by determining the corrected density in the nucleus relative to the corrected density in the whole cell (in %).

Structure (SMILES) | FKBP5 expression, long-term [1] | FKBP5 expression, short-term [1] | nuclear translocation level of GR ([2]; beclomethasone 0.01 μM, vs vehicle) | nuclear translocation level of GR ([2]; beclomethasone 0.1 and 1 μM) | nuclear translocation level of GR ([2]; Rg1 5, 10 and 20 μM, vs vehicle)
C[C@H]1C[C@H]2[C@@H]3CCC4=CC(=O)C=C[C@]4(C)[C@@]3(Cl)[C@@H](O)C[C@]2(C)[C@@]1(O)C(=O)CO [beclomethasone, reference compound] | increased over time | strongly increased the expression of these genes after short-term treatment | significantly increased the translocation level compared to vehicle | maximal nuclear translocation was observed | 
CC(C)=CCC[C@](C)(O[C@@H]1O[C@H](CO)[C@@H](O)[C@H](O)[C@H]1O)[C@H]1CC[C@]2(C)[C@@H]1[C@H](O)C[C@@H]1[C@@]3(C)CC[C@H](O)C(C)(C)[C@@H]3[C@@H](O[C@@H]3O[C@H](CO)[C@@H](O)[C@H](O)[C@H]3O)C[C@]12C [Rg1, (3β,6α, 12β)-3,12-Dihydroxydammar-24-ene-6,20-diyl bis-β-D-glucopyranoside] | did not affect the expression of these genes | did not affect the expression of these genes |  |  | only increased the translocation level compared to the vehicle treatment at 20 μM, still inducing only partial translocation
